Structures can show the parent of a compound that is named as a salt.
What was measured:
[1] = Metabolic stability in vitro, lysate of human hepatoma cells HepG2; format: in vitro ADME; conditions: 37° C.
Description: Assay: the human hepatoma cells HepG2 (ATCC HB-8065) were grown in Eagle's Minimum Essential Medium supplemented with 10% fetal calf serum. The cells were harvested at 80% confluence. The hepatocytes were scraped, two time washed in Hank's Balanced Salt Solution (HBSS) buffer pH-7.4 and suspended in homogenization buffer composed of 10 mM Tris-HCl, 10 mM KCl, 0.15 mM MgCl2 pH 6.7. The cells were homogenized on ice by homogenizer LabGEN7 (Cole Palmer) at 5000 rpm 15 sec. Homogenized cells in HBSS with compound (protein concentration is 95 μg/ml) incubate 37° C. After 10, 30, 60, 120, 180, and 240 min collect 1 ml sample and add 0.1 ml 40% TCA, then centrifugation at 1200 g for 10 min. Supernatant collected and analyzed.
Results: The stability of deuterated selenopheno[h]chromenes I-1-I-3 compared with non-deuterated analogue methyl 7-bromo-8-((4-methylpiperazin-1-yl)methyl)-2-oxo-2H-selenopheno[3,2-h]chromene-3-carboxylate dihydrochloride (I-0) was tested in vitro using lysate of human hepatoma cells HepG2. The results are presented in FIG. 1 (x-axis—minutes of incubation, y-axis—percent of remained ester).

[2] = test system: MDA-MB-231; experiment: In vitro cytotoxicity (MTT) on MDA-MB-231; format: cell-based, human; conditions: MDA-MB-231, MTT, 48 h
[3] = test system: MCF-7 (human breast adenocarcinoma, estrogen-positive); experiment: In vitro cytotoxicity (MTT) on MCF-7; format: cell-based; conditions: MCF-7, MTT, 48 h
Description: (§1) Anticancer activity of deuterated selenopheno[h]chromenes was tested in vitro using cytotoxicity assay. Thus, monolayer tumor cell lines MDA-MB-435s (human melanoma), MCF-7 (human breast adenocarcinoma, estrogen-positive), MES-SA (human uterus sarcoma), HT-1080 (human fibrosarcoma), A549 (human lung carcinoma), GM08402 (human fibroblast, apparently healthy), 3T3 (mouse embryo fibroblasts), H9C2 (rat cardiomyocytes) were cultured in standard medium DMEM (Dulbecco's modified Eagle's medium) (“Sigma”) supplemented with 10% heat-inactivated fetal bovine serum (“Sigma”). The cell viability was assessed by addition of 3-(4,5-dimethylthiazol-2-yl)-2,5-diphenyltetrazolinium bromide (MTT). Briefly, cells were seeded (2−6×10^4 cells/ml) in 96-well plates and allowed to attach for 24 h.
(§2) Tested compound solutions were prepared and serially diluted to obtain appropriate concentrations. Cells were treated with different concentrations (0.032-100 μM) and incubated for 48 h at 37° C., 5% CO2 Then the culture medium was removed and medium containing 0.2 mg/ml MTT was added. After 3 h (37° C., 5% CO2), the MTT-containing medium was removed, and 200 μl of dimethyl sulfoxide (DMSO) was immediately added to each sample. The absorbance was assessed at 540 nm on a Tecan multiplate reader Infinite 1000 (Austria). The half-maximal inhibitory concentration (IC50) of each compound was calculated using Graph Pad Prism® 3.0.

[4] = test system: MES-SA (human uterus sarcoma); experiment: In vitro cytotoxicity (MTT) on MES-SA; format: cell-based; conditions: 48 h
Description: as §1, §2

[5] = test system: HT-1080 (human fibrosarcoma); experiment: In vitro cytotoxicity (MTT) on HT-1080; format: cell-based; conditions: HT-1080, MTT, 48 h
Description: as §1, §2

[6] = test system: A549 (human lung carcinoma); experiment: In vitro cytotoxicity (MTT) on A549; format: cell-based; conditions: 48 h
Description: as §1, §2

[7] = test system: GM08402 (human fibroblast, apparently healthy); experiment: In vitro cytotoxicity (MTT) on GM08402; format: cell-based; conditions: 48 h
Description: as §1, §2

[8] = test system: 3T3 (mouse embryo fibroblasts); experiment: In vitro cytotoxicity (MTT) on 3T3; format: cell-based; conditions: 3T3, MTT, 48 h
Description: as §1, §2

[9] = test system: H9C2 (rat cardiomyocytes); experiment: In vitro cytotoxicity (MTT) on H9C2; format: cell-based; conditions: 48 h
Description: as §1, §2

[10] = In vitro cytotoxicity (MTT) on GM08402; format: cell-based, human; conditions: human, GM08402 fibroblasts
Description: as §1, §2

[11] = In vitro cytotoxicity (MTT) on 3T3; format: cell-based, mouse; conditions: mouse, 3T3 embryo fibroblasts, 3T3, MTT
Description: as §1, §2

[12] = In vitro cytotoxicity (MTT) on H9C2; format: cell-based, rat; conditions: rat, H9C2 cardiomyocytes
Description: as §1, §2

| Compound | percent of remained ester ([1]; after 240 minutes of incubation) | stability to hydrolysis (in words) ([1]; incubation up to 240 min, FIG. 1) | IC50 [2] | IC50 [3] | IC50 [4] | IC50 [5] | IC50 [6] | IC50 [7] | IC50 [8] | IC50 [9] | IC50 ([2]; Homo sapiens) | IC50 ([3]; Homo sapiens, MCF7) | IC50 ([4]; Homo sapiens) | IC50 ([5]; Homo sapiens) | IC50 ([6]; Homo sapiens) | IC50 at 48 h [10] | IC50 at 48 h [11] | IC50 at 48 h [12] |
| --- | --- | --- | --- | --- | --- | --- | --- | --- | --- | --- | --- | --- | --- | --- | --- | --- | --- | --- |
| Butyl-d9 7-bromo-8-((4-methylpiperazin-1-yl)methyl)-2-oxo-2H-selenopheno[3,2-h]chromene-3-carboxylate dihydrochloride [Compound I-3] | 24% | highest stability to hydrolysis | 35 ± 8 µM | 70 ± 3 µM | 29 ± 3 µM | 31 ± 3 µM | 40 ± 13 µM | 62 ± 3 µM | 34 ± 7 µM | 30 ± 4 µM |  |  |  |  |  |  |  |  |
| [2H]C([2H])([2H])OC(=O)c1cc2ccc3c(Br)c(CN4CCN(C)CC4)[se]c3c2oc1=O [Compound I-1, Methyl-d3 7-bromo-8-((4-methylpiperazin-1-yl)methyl)-2-oxo-2H-selenopheno[3,2-h]chromene-3-carboxylate dihydrochloride] |  |  |  |  |  |  |  |  |  |  | 84 ± 13 µM | 82 ± 5 µM | 40 ± 7 µM | 70 ± 6 µM | 105 ± 7 µM | 89 ± 16 µM | 66 ± 11 µM | 82 ± 14 µM |
| COC(=O)c1cc2ccc3c(Br)c(CN4CCN(C)CC4)[se]c3c2oc1=O [Compound I-0, methyl 7-bromo-8-((4-methylpiperazin-1-yl)methyl)-2-oxo-2H-selenopheno[3,2-h]chromene-3-carboxylate dihydrochloride, reference compound] |  |  |  |  |  |  |  |  |  |  | 95 ± 4 µM | 54 ± 6 µM | 56 ± 1 µM | 58 ± 5 µM | > 100 µM | 77 ± 16 µM | 100 ± 5 µM | 92 ± 12 µM |
| Cl.Cl.[2H]C([2H])([2H])C([2H])([2H])OC(=O)c1cc2ccc3c(Br)c(CN4CCN(C)CC4)[se]c3c2oc1=O [Compound I-2, Ethyl-d5 7-bromo-8-((4-methylpiperazin-1-yl)methyl)-2-oxo-2H-selenopheno[3,2-h]chromene-3-carboxylate dihydrochloride] |  |  |  |  |  |  |  |  |  |  | 90 ± 15 µM | 46 ± 4 µM | 56 ± 15 µM | 59 ± 6 µM | > 100 µM | 94 ± 8 µM | 64 ± 9 µM | 73 ± 4 µM |

From patent US12612417B2, “Deuterated analogues of selenophenochromenes, synthesis thereof, and methods of using same agents” (Latvian Institute of Organic Synthesis, priority 2019, dated 2026)
